Test results reported in a melting point compilation (Tetko et al.; mined from patent text by program, amines drawn as free bases though some values may be those of a salt).

Point of comparison: `CC(=O)OC1CSC(Oc2ccc(-c3cccnc3)cc2F)C(OC(C)=O)C1OC(C)=O` (stereo unspecified), melting point 122 °C. Against it:
- O=C(C=Cc1ccccc1[N+](=O)[O-])CC(=O)NC1CC1 — higher, 133 to 134 °C
- CC(C)(C)c1cc2c(c(C(C)(C)C)c1)O[Si](C)(C)Oc1c-2cc(C(C)(C)C)cc1C(C)(C)C — higher, 170 to 176 °C
- O=C(Nc1ccc(F)c(NC(=S)Nc2cc(Cl)cc(Cl)c2)c1)c1ccc(F)c(F)c1 — higher, 197 °C
- CC(=O)N(CC(C)C)C1NC(=O)N(c2cccs2)C(=O)N1 — higher, 138 to 139 °C
- O=C(c1ccccc1)c1noc(CS(=O)c2ccccc2)n1 (stereo unspecified) — lower, 79 to 81 °C
- ClCc1c(Cl)ccc2cc(Cl)cnc12 — higher, 129 °C
- CCN1c2ncc(CCc3ccncc3)cc2C(=O)N(C)c2ccc(N)nc21 — lower, 94 to 97 °C
- CC(=O)c1ccc(Cl)c(S(=O)(=O)N(C)C)c1 — lower, 108 °C
- CCOc1cc(C(=O)N2CCN(C(=O)C3=Cc4cc(OC)c(OC)cc4CCC3)CC2)cc(OCC)c1OCC — higher, 125 to 126 °C
- CC(=O)NCCOc1nc(-c2ccc(F)cc2C)c2ccc(=O)n(-c3c(F)cccc3F)c2n1 — lower, 75 to 79 °C
- Cc1ccc(-c2nc(N)nc(N)c2[N+](=O)[O-])o1 — higher, 196 to 197 °C
- COc1ccc2c(c1OC)C[C@@H](C1CCN(CCc3ccccc3)CC1)O[C@H]2CN (relative stereo) — lower, 100 to 102 °C
- CC(C)CCNC(=O)CNC(=O)C(Br)Cc1ccccc1 (stereo unspecified) — lower, 110 °C
- CC(Oc1ccc2c(=O)c(-c3ccccc3)coc2c1)C(=O)O (stereo unspecified) — higher, 201 to 202 °C
- CCOC(=N)c1c(O)ccc2ccccc12 — higher, 145 to 146 °C
- CCOC(=O)c1ccc2oc3ncccc3c(=O)c2c1 — higher, 131 to 132 °C
- CCOC(=O)c1cnc2c(OC)cccc2c1Nc1cscc1C — higher, 162 to 164 °C
- CCn1nc(C(F)(F)F)c(CS(=O)(=O)C2=NOC(C)(CCl)C2)c1S(C)(=O)=O (stereo unspecified) — lower, 113 to 114 °C
- N[C@@H](CCCCN=Cc1ccccc1)C(=O)O — lower, 79 to 81 °C
- CCNC(=O)c1cccc(NC(=O)c2nnn(Cc3ccc(Cl)c(Cl)c3)c2C)c1 — higher, 192 °C
- COc1ccccc1OC1CCN(CCCNC(=O)c2cccc3c(=O)c(C)c(-c4ccccc4)oc23)CC1 — higher, 154 to 156 °C
- CCNc1ccnc(Cl)c1 — lower, 55 to 57 °C
- CCOC(=S)SCCC(=O)N1CCC[C@H]1C(=O)O — lower, 94 to 95 °C
- CCOC(=O)COc1c(C=O)cccc1OC — lower, 75.1 to 76.2 °C
- O=C(c1ccccc1)c1ccc(NC(=O)c2cc(Cl)ccc2Cl)cc1 — higher, 150 to 153 °C
- COc1ccccc1C(=O)NCCc1ccc(-c2ccc(O)cc2)cc1 — lower, 118 °C
- O=C1Nc2ccc(-c3ccc(F)c(Cl)c3)cc2C12CCCC2 — higher, 202 to 204 °C
- O=C(c1cccs1)c1scc(Br)c1Br — lower, 105 to 109 °C
- Fc1cc(CC2(Cc3ccnc(F)c3)c3ccccc3-c3ncccc32)ccn1 — higher, 137 to 140 °C
- COc1ccccc1NC(=O)NC1CC(N)(C(=O)O)C2C(C(=O)O)C12 (stereo unspecified) — higher, > 250 °C
- O=C(Nc1cc(Cl)ccc1-c1nnn[nH]1)c1cnn(-c2ccc(Cl)cc2)c1C(F)(F)F — higher, 176 to 180 °C
- O=C1NCCN(N=Cc2ccccc2)C1=O — higher, 231 to 234 °C
- CCCCCCCCC=CCCCCCCCC(=O)NCCCSc1ccncc1 — lower, 50 to 50.5 °C
- Cc1[nH]c(C(N)=O)c(C)c1-c1ccnc(Nc2ccc(F)cc2)n1 — lower, 93.5 to 96.8 °C
- O=C1C2CCN(CC2)C1CN1CCCCC1 (stereo unspecified) — lower, 34 to 37 °C
- COC(=O)C(Cl)Cc1ccc(O)cc1 (stereo unspecified) — lower, 57 to 59 °C
- CCC(Oc1ccc(-n2nnc3cc(C(F)(F)F)ccc32)cc1)C(=O)O (stereo unspecified) — not separable, 122 to 125 °C
- O=C(O)Cn1c(=O)n(S(=O)(=O)c2ccccc2)c(=O)c2ccc(Cl)cc21 — higher, 212 to 214 °C
- O=C(NC1(C(=O)O)CCCC1)C(CS)Cc1ccccc1 (stereo unspecified) — higher, 165 to 167 °C
- COC(=O)NN=Cc1ccccc1N — higher, 149 to 150 °C
- Cc1nc(-c2cc(N)c(=O)[nH]c2C)cs1 — higher, 192 to 194 °C
- CNC(=O)c1cccc(F)c1Nc1nc(Nc2ccc3c(c2)N(CCOC)C(=O)CCC3)ncc1Cl — higher, 199 to 204 °C
- CC1CC2CCC=C3C=C(Cl)NCC1=C32 (stereo unspecified) — higher, 279 to 281 °C
- COc1cc(N)c([N+](=O)[O-])cc1I — higher, 189 °C
- CCCn1c(=O)c2c(nn3cc(-c4ccccc4)[nH]c23)n(Cc2ccccc2)c1=O — higher, 261 to 262 °C
- CCc1cn(C(CC)CC)c(=O)c(N2CCc3cc(Cl)cc(Cl)c32)n1 — higher, 136 to 137 °C
- COc1cc(=O)c2c([nH]c1=O)CC(Cl)C(Cl)C2 (stereo unspecified) — higher, 229 to 230 °C
- COC(=O)c1csc(-c2cc3ccccc3[nH]2)n1 — lower, 69 to 71 °C
- COc1cc(C#N)ccc1C=O — lower, 112 to 114 °C
- COC(=O)N=C(N)SC — lower, 72 to 77 °C
- O=C(c1ccc(Br)cc1)N(C1CCCCC1)C1CCCC1 — lower, 110 to 112 °C
- COc1cc(OC)c2c(c1)C(C)(C)C(c1ccc(OC)c(OC)c1)C(C)C(=O)O2 (stereo unspecified) — higher, 163 to 165 °C
- CC(C)(C)c1ccc(Nc2nnc(Cc3ccc(O)nc3)c3ccccc23)cc1 — higher, 134 to 135 °C
- COC(=O)c1cccc(S(=O)(=O)N(C)C)c1C — lower, 40 to 43 °C
- C=CCN1C(=O)C(C)(C)c2ccc(-c3nc4ccccc4[nH]3)cc21 — higher, 197 to 200 °C
- CCCCOC(=O)c1ccc2nc(N)[nH]c2c1 — higher, 183 to 185 °C
- O=C(O)CC1C=CC=CC1=NOC(=O)C(Cl)Cl (stereo unspecified) — lower, 115 °C
- COC(=O)C(C)(C)Oc1ccc(-c2ccc(CCNC(=O)c3cc(Cl)ccc3OC)cc2)cc1 — lower, < 20 °C
- CC1CCC(NS(=O)(=O)NC(=O)OCc2ccccc2)CC1 (stereo unspecified) — higher, 153 to 155 °C
- NNc1cc(OC2CCCC2)c(Cl)cc1F — lower, 77 to 79 °C
- CN(CCCN1c2ccccc2CCc2ccccc21)c1ncccc1C(=O)O — higher, 133 to 135 °C
- CC(Cc1ccc(OCc2ccccc2)cc1)NCC(O)c1cccc(Cl)c1 (stereo unspecified) — lower, 95 to 99 °C
- COC(=O)c1ccc2ccc3ccccc3c(=O)c2c1 — lower, 118 to 120 °C
- CCCc1cc(=O)oc2cc(O)ccc12 — higher, 135 to 137 °C
- CCOC(=O)Cc1csc(NC(=O)C(N)Cc2cccs2)n1 (stereo unspecified) — lower, 98 to 102 °C
- COCCN1CCc2cc(Nc3ncc(Cl)c(Nc4ccc(C(N)=O)cc4OC)n3)c(OC)cc2CC1 — lower, 100 to 112 °C
- COc1cc2c(=O)c(C#N)c[nH]c2cc1[N+](=O)[O-] — higher, 305 to 309 °C
- O=C(Nc1ccccc1)c1ccc2c(c1)N(C1CC1)CNS2(=O)=O — higher, 232 to 234 °C
- COc1cccc(-c2ccc(C(=O)N(Cc3cccc(O)c3)C3CC3)s2)c1F — higher, 150 °C
- COc1ccc(S(=O)(=O)c2ccc(C)nc2Nc2c(C)cc(C)cc2C)cc1 — higher, 165 to 167 °C
- CNC(=O)[C@H]1S[C@@H](n2cnc3c(NC)nc(Cl)nc32)[C@H](O)[C@@H]1O — higher, 130 to 141 °C
- Cn1ncnc1COc1nn2c(-c3ccccc3F)nncc2c1-c1cccnc1 — higher, 181 to 183 °C
- CCC1c2nc[nH]c2CCN1C(=S)NC(C)C (stereo unspecified) — higher, 215 °C
- O=C(NCC1CCCC1)c1ccc2c(Br)n[nH]c2c1 — not separable, 119 to 125 °C
- Cc1nc2c(-c3cccc(N4CCN(C)CC4)c3)cnn2c(N)c1-c1cccc(Br)c1 — lower, 107 to 113 °C
